Assay results taken from patent US20240009314A1, “COMPOSITIONS AND METHODS FOR TARGETING TUMOR-ASSOCIATED MACROPHAGES” (Resolute Science, priority 2020, published 2024).

How the values were obtained:
[1] = test system: GL261 cells; test: Anti-tumor activity in immunocompetent GL261 glioma mouse model; type: in vivo
Experimental: The anti-tumor activity of Target-5 was assessed in vivo using an immunocompetent glioma mouse model. Three distinct doses of Target-5 were evaluated against Temozolomide, an FDA-approved chemotherapeutic agent, and a vehicle control in C57BL/6 mice.
Specifically, female C57BL/6 mice (Jackson Laboratories) were inoculated with 5×10^6 GL261 cells (mycoplasma tested-negative) with 96% viability and 100% tumor take rate (cell passages prior to plating (#7)).
Target-5 was formulated in 0.9% saline and the mice were treated twice a week with either 5 mg/kg, 7.5 mg/kg, or 10 mg/kg Target-5 by tail vein injection. The dosing volume was adjusted for body weight. Temozolomide was formulated in 10% DMSO in 0.9% sodium chloride and mice were treated twice a week by gavage at a dosage of 12.5 mg/kg. n=10 for each group.

[2] = test system: MC38 tumor cells; test: Anti-tumor activity in MC38 colon cancer mouse model; type: in vivo; conditions: 40 mg/kg intraperitoneally q3 days×4
Experimental: Specifically, 8- to 12-week-old C57BL/6 female mice (Charles River Laboratories) were inoculated with 5×10^5 MC38 tumor cells in 0% Matrigel subcutaneously in the flank in a volume of 0.1 mL/mouse on Study Day 0. A pair match was performed when the tumors reached an average size of 80-120 mm 3 at which time treatment began.
The dosing volume was adjusted for body weight. Gemcitabine was administered at a dosage of 40 mg/kg and delivered intraperitoneally q3 days×4. Tumor was measured by calipers twice a week. Body weight was measured every day for 5 days and then bi-weekly to the end of the study. (n=10/group). The endpoint of study was when tumor volume reached 1500 mm^3.

Cn1nnc2c(C(N)=O)ncn2c1=O [temozolomide]
change in body weight ([1]; any treatment group, FIG. 8C): no significant change
Mean tumor volume ([1]; day 21, 12.5 mg/kg twice a week by gavage): 302.6 mm^3

Nc1ccn([C@@H]2O[C@H](CO)[C@@H](O)C2(F)F)c(=O)n1 [Gemcitabine]
tumor volume compared to Target-5 groups [2]: appeared to reduce tumor volume more
